Measured values as given in patent US9261497B2, “Method of treating cancer with modulators of SCFSkp2” (New York University, priority 2012, dated 2016).

Key:
[1] = system: p27 in ECC-1 cells; assay: p27 immunoblot in ECC-1 cells (whole cell lysates, nuclear and cytoplasmic fractions); conditions: for Block of E2-induced decrease of p27: ECC-1, control siRNA transfected, 1 nM E2 plus 1 μM Lactacystin or 10 nM ICI 182,780
Protocol: The endometrial carcinoma cell line (derived from a well-differentiated endometrioid Type I ECA) ECC-1 cells (ATCC, Manassas, Va.) were plated at a density of 3×10^5/well/6-well plate and grown in DMEM:F12 supplemented with 10% FBS (BioWest, Ocala, Fla.). The cell line was passaged in the laboratory for fewer than 6 months after receipt. […] ECAs were plated at a density of 2.2×10^6 cells/6-well Primaria® plates (BD Biosciences, San Jose, Calif.) in McCoys 5A media without phenol red containing 10% charcoal-stripped FBS, 2 mM L-Glutamine (Invitrogen) and antimycotic antibiotic solution (Mediatech, Hendon, Va.).
For subcellular fractionation, following treatments, cells were separated into nuclear and cytoplasmic fractions using the NE-PER kit (Thermo Scientific), and 10 μg cytoplasmic and nuclear protein fractions were loaded onto SDS-PAGE for immunoblotting. […] The membranes were incubated with peroxidase-conjugated goat anti-rabbit or goat anti-mouse secondary antibodies in TBST (1:2000; Thermo Scientific). […] Protein bands were resolved using the SuperSignal West Dura kit (Thermo Scientific), visualized by exposure to X-ray film (HyBlot; Denville Scientific, Denville, N.J.), and following densitometric scanning (Kodak Logic-100), the protein bands were quantified by normalizing to β-actin and compared to the untreated control, and the values represented by the graphs of relative protein levels compared to actin in each well and shown as % of Vehicle control.

[2] = system: ECC-1 cells; assay: ECC-1 cell proliferation (MTS assay); assay type: cell-based, human; conditions: Lactacystin-treated cells
[3] = system: p27 in 501 Mel, SK-MEL-147, and SK-MEL-173; assay: Immunoblot of steady state protein levels in metastatic melanoma cell lines; assay type: cell-based, human; conditions: 501 Mel cells; 400 nM
Protocol: 501 Mel cells were also treated with MG-132 (a proteasome inhibitor) to confirm that p27 and p21 induction were responsive to known UPS inhibitors (FIG. 4A, right). […] Thus, treatment of cells with inhibitors targeting the Skp2-Cks1 interface induces protein levels of specific Skp2-Cks1 substrates.
Whole cell extracts were prepared and immunoblotted as previously described Dorrello et al., “S6K1- and betaTRCP-mediated Degradation of PDCD4 Promotes Protein Translation and Cell Growth,” Science 314:467-471 (2006), which is hereby incorporated by reference in its entirety. For knockdown of Skp2 or p27, shRNAs were induced with 2 ng/ml doxycycline for 48 hours, with the last 16 hours co-treated with 0.1% Vehicle or 10 μM inhibitors as indicated. For cycloheximide chase, cells were pretreated 16 h with 0.1% Vehicle or 10 μM inhibitors, followed by 20 ng/ml cycloheximide (Sigma) and whole cell extracts collected for each time point. […] Scanning densitometry was performed on immunoblots using Image J software. For cell cycle analysis, cells were treated with 0.1% Vehicle or 10 μM inhibitors for 16 h. 1×10^6 cells were fixed in 70% ethanol for 2 h, treated with 200 μg/ml RNase A (Invitrogen) for 30 minutes, and stained with 20 μg/ml Propidium Iodine (Sigma). All samples were assayed in triplicates. Signal was detected using the Becton Dickson LSRII flow cytometer and cell cycle profiles were analyzed with FloJo.

[4] = target: T1, Skp2-p27 interaction (Homo sapiens, UniProt P61024+Q13309); assay: p27 binding to HA-Skp2 (HA-immunoprecipitation); conditions: 10 μM; HA-Skp2 and Cks1 pretreated before p27-pT187; without ubiquitylation
T1 construct: made in house; host or cells: cell-free: rabbit reticulocyte lysate (TNT T7 Coupled Reticulocyte Lysate System, Promega) from pcDNA3.1 plasmids
T1 sequence (Q13309 whole entry): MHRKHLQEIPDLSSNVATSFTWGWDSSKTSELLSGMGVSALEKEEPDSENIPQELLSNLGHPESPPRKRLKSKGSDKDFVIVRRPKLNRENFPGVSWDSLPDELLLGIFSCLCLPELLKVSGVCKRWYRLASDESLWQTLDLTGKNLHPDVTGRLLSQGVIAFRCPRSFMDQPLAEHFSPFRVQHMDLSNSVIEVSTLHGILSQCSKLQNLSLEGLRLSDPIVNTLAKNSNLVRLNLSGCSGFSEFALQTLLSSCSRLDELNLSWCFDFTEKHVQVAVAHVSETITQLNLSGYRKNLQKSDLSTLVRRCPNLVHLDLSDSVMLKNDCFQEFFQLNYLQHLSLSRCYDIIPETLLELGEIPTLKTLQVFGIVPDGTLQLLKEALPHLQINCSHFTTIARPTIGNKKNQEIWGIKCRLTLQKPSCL
T1 sequence (P61024 whole entry): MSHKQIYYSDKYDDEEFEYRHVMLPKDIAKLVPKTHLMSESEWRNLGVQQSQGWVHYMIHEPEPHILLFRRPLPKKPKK
T1 sequence (P63208 whole entry partner): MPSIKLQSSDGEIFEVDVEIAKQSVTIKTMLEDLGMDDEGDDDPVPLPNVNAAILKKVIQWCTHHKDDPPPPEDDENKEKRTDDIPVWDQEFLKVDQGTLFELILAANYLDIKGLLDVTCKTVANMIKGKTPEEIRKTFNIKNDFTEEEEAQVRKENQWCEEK
T1 sequence (Q13616 whole entry partner): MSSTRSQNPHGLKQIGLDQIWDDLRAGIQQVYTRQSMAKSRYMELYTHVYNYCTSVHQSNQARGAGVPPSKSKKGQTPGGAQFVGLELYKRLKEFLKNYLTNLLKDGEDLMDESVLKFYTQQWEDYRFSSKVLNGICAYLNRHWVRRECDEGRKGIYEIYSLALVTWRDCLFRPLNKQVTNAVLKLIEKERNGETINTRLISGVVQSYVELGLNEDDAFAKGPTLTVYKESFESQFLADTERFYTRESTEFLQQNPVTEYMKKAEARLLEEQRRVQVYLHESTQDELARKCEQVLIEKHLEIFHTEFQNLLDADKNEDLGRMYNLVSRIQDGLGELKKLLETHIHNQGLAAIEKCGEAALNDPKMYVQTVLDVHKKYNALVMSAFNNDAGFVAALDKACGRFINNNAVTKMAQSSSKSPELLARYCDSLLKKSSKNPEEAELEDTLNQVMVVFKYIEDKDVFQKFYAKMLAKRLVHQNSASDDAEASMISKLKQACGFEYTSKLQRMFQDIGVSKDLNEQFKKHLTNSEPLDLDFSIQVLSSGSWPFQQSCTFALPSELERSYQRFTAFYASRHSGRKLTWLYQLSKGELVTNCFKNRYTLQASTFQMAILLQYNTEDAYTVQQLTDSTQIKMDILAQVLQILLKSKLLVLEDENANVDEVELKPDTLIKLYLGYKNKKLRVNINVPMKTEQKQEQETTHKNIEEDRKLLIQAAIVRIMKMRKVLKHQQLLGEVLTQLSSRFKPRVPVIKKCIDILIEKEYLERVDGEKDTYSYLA
T1 sequence (P62877 whole entry partner): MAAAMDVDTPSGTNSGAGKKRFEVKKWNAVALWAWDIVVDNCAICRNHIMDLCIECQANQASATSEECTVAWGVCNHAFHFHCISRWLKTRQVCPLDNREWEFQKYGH
Protocol: In vitro ubiquitylation assays were incubated with anti-HA affinity matrix (Roche) in IP buffer (50 mM Tris pH 7.6, 150 mM NaCl, 0.1% NP40, and Roche Complete EDTA-free protease tablet) for 16 h at 4° C. Beads were washed 3× with IP buffer and eluted with 2×SDS Sample Buffer (Boston Bioproducts) and 10% Beta-mercaptoethanol. For binding without ubiquitylation, HA-Skp2 IVT (10 μl) and Cks1 IVT (10 μl) were preincubated with anti-HA affinity matrix in IP buffer for 2 hours, with the addition of p27 kinase reaction (10 μl) for another 16 h incubation at 4° C. All reactions were analyzed after SDS/PAGE by western blotting. Where indicated, Skp2 and Cks1 were pretreated with 10 μM inhibitors for 30 minutes. Kinase reactions were performed with p27 IVT (10 μl) and 0.5 μg/ul CyclinE/CDK2 in kinase buffer (50 mM Tris HCL pH 7.5, 10 mM MgCl2, 2 mM ATP, 2.5 μM Okadaic Acid, and 0.6 mM DTT) at 30° C. for 1 h.

[5] = target: T2, His-6Skp1-Skp2-Cks1 (Homo sapiens, UniProt P61024+Q13309); assay: Differential scanning fluorimetry (protein melt); assay type: binding; conditions: compound 75 μM; protein 1.5 μM
T2 construct: His6-tagged human Skp2 (residues 89-424); Human full-length Cks1 was produced as described; made in house
T2 sequence (Q13309 89-424 limits assumed): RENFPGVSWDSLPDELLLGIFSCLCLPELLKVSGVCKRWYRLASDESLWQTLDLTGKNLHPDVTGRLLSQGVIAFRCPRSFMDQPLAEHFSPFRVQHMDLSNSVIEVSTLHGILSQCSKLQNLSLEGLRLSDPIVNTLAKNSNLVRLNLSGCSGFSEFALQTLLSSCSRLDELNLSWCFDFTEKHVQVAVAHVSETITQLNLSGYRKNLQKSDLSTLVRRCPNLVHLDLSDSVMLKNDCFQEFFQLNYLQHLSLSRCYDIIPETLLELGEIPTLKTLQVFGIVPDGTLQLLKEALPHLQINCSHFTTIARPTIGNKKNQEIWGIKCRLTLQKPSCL
T2 sequence (P61024 whole entry, the tested form may be a part): as the sequence (P61024 whole entry) above
Protocol: Protein melt assays were carried out following the manufacturer's protocol on the LightCycler 480 System II (Roche) using Sypro Orange dye (Sigma). Fluorescence (465 nm excitation/580 nm detection) was acquired (10 data points/sec) at a ramp rate of 0.06° C./sec between 20° C. and 85° C. Melting temperatures were calculated using the LightCycler 480 Protein Melt analysis tool (Roche).

[6] = target: T3, SCF-Skp2 (Skp2-Cks1) (Homo sapiens, UniProt P61024+Q13309); assay: In vitro ubiquitylation assay, Skp2-mediated p27 ubiquitylation (Wild-Type Cks1); assay type: biochemical; conditions: 50 μM compound, immunoblot for p27-(Ub)n
T3 construct: made in house; host or cells: cell-free: rabbit reticulocyte lysate (TNT T7 Coupled Reticulocyte Lysate System, Promega) from pcDNA3.1 plasmids
T3 sequence (Q13309 whole entry): as the sequence (Q13309 whole entry) above
T3 sequence (P61024 whole entry): as the sequence (P61024 whole entry) above
T3 sequence (P63208 whole entry partner): as the sequence (P63208 whole entry partner) above
T3 sequence (Q13616 whole entry partner): as the sequence (Q13616 whole entry partner) above
T3 sequence (P62877 whole entry partner): as the sequence (P62877 whole entry partner) above
Protocol: The 96 hits were tested in an in vitro ubiquitylation assay driven by in vitro transcribed/translated Skp2, Cks1, and p27 (Sitry et al., “Three Different Binding Sites of Cks1 are Required for p27-ubiquitin Ligation,” J. Biol. Chem. 277:42233-42240 (2002)). Assay sensitivity was established for various criteria (FIG. 1B): Enhanced ubiquitylation with Cks1 (lane 2), kinase activity requirement (lane 3), and responsiveness to known inhibitors of Cullin (lane 5) or Cdk2 (lane 6) activity (Meijer et al., “Biochemical and Cellular Effects of Roscovitine, a Potent and Selective Inhibitor of the Cyclin-dependent Kinases cdc2, cdk2 and cdk5,” Eur. J. Biochem. 243:527-536 (1997); Soucy et al., “An Inhibitor of NEDD8-activating Enzyme as a New Approach to Treat Cancer,” Nature 458:732-736 (2009), which are hereby incorporated by reference in their entirety). Compounds showing at least 50% inhibition of Skp2-mediated p27 ubiquitylation (FIG. 1C) were counter-screened for inactivity against two anti-target E3 ligases: MDM2 and SCF-βTrCP (FIGS. 6A-B). Compounds C1 and C2 were identified from the primary VLS and C16 and C20 were identified from a second VLS (FIG. 2).
In vitro reconstituted assays were performed as previously described (Dorrello et al., “S6K1- and betaTRCP-mediated Degradation of PDCD4 Promotes Protein Translation and Cell Growth,” Science 314:467-471 (2006), which is hereby incorporated by reference in their entirety) with the exceptions of the use of (1) unlabeled proteins (wild-type and mutant Skp2 and Cks1, p27, Flag-βTrCP, and HA-PDCD4) generated by in vitro transcription-translation (TNT T7 Coupled Reticulocyte Lysate System, Promega); (2) chain elongation with non-methylated ubiquitin; and (3) immunoblotting to detect poly-ubiquitylation. The following reagents were obtained from Boston Biochem: UBE1, His-UbcH3, His-UbcH5c, Ubiquitin, and Ubiquitin Aldehyde. Additional reagents include CDK2/CyclinE1 (Sigma-Aldrich), S6K (Invitrogen), Okadaic acid (Sigma), and DMSO (Sigma-Aldrich). For ubiquitin charging, UBE1 (100 nM) and His-UbcH3 (10 ng/μl) were incubated with ubiquitin (2.5 μg/μl), ATP (2 mM), and 10 μM […] of inhibitors or Vehicle control for 60 min at 30° C. Reactions were stopped in nondenaturing 2× Sample Buffer, with the addition of 10% Beta-mercaptoethanol as indicated, and analyzed by Western blotting.

Structure (SMILES): C[C@]12CC[C@@H]3c4ccc(O)cc4C[C@@H](CCCCCCCCC[S+]([O-])CCCC(F)(F)C(F)(F)F)[C@H]3[C@@H]1CC[C@@H]2O (some centres unmarked) [ICI 182,780, reference compound]
- Block of E2-induced decrease of p27 ([1]; 18 h): nearly completely blocked
- Effect on E2-induced decrease in nuclear p27 ([1]; ECC-1, E2 plus 10 nM ICI 182,780, 18 h): to the level of untreated control

Structure (SMILES): CC(=O)N[C@@H](CSC(=O)[C@]1([C@@H](O)C(C)C)NC(=O)[C@H](C)[C@@H]1O)C(=O)O [Lactacystin, reference compound]
- p27 in nuclear and cytoplasmic fractions ([1]; ECC-1 (FIG. 11D)): increases p27 in both subcellular fractions
- Block of E2-induced decrease of p27 ([1]; 18 h): completely blocked
- Inhibition of proliferation [2]: 36%

Structure (SMILES): NS(=O)(=O)OC[C@@H]1C[C@@H](n2ccc3c(N[C@H]4CCc5ccccc54)ncnc32)C[C@@H]1O [MLN-4924, reference compound]
- Neddylation of Cul1 [3]: inhibited neddylation of Cul1

Structure (SMILES): COc1cccc(-c2cc(=O)c3ccccc3o2)c1N [PD 98059, PD98059, reference compound]
- p27 less than control ([1]; ECC-1, E2 plus 20 μM PD98059, 18 h): 24%

Structure (SMILES): COc1ccc(Br)cc1C=C1SC(=S)N(Cc2cccnc2)C1=O [UM-C1, reference compound]
- p27 binding to Skp2 [4]: lost the ability to inhibit p27 from binding to Skp2
- Shift of melting temperature (Tm) of purified protein complex [5]: not

Structure (SMILES): COCCCN1C(=O)C(=Cc2ccccc2O)C(C(=O)OC)=C1C [UM-C2a, reference compound]
- Inhibition of Skp2-mediated p27 ubiquitylation [6]: partially reduced p27 ubiquitylation

Structure (SMILES): CCN1C(=O)C(=Cc2ccccc2O)C(C(=O)OC)=C1C [UM-C2b, reference compound]
- p27 binding to Skp2 [4]: lost the ability to inhibit p27 from binding to Skp2
